Laboratory results as given in the supplement of paper PMC10307832.

Key:
Assay in all cases: relative viability (nuclei count vs DMSO), 5 days (fraction); higher = more cells survive
NCI-H2228 = tested on: NCI-H2228
Method in brief: (§1)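 One day after seeding in 1536-well plates, lung cancer cell lines were dosed by pin tool. Dosing was either single-drug or a fixed anchor-drug dose plus five library-drug doses (not always all listed) in √10 steps. After 5 days, nuclei were stained in one fix-and-stain step and counted on 4× images, and relative viability is the nuclei count of treated wells over that of vehicle wells, given as the median of duplicate plates.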

PC-3 [JPC-3] = tested on: PC-3 [JPC-3]
Method in brief: as §1

A-427 = tested on: A-427
Method in brief: as §1

LOU-NH91 = tested on: LOU-NH91
Method in brief: as §1

HOP-62 = tested on: HOP-62
Method in brief: as §1

NCI-H1734 = tested on: NCI-H1734
Method in brief: as §1

SW 1573 = tested on: SW 1573
Method in brief: as §1

NCI-H1915 = tested on: NCI-H1915
Method in brief: as §1

NCI-H2347 = tested on: NCI-H2347
Method in brief: as §1

HCC-78 = tested on: HCC-78
Method in brief: as §1

NCI-H1755 = tested on: NCI-H1755
Method in brief: as §1

LC-2-ad = tested on: LC-2-ad
Method in brief: as §1

NCI-H1792 = tested on: NCI-H1792
Method in brief: as §1

NCI-H1975 = tested on: NCI-H1975
Method in brief: as §1

LXF-289 = tested on: LXF-289
Method in brief: as §1

NCI-H2126 = tested on: NCI-H2126
Method in brief: as §1

NCI-H358 = tested on: NCI-H358
Method in brief: as §1

NCI-H460 = tested on: NCI-H460
Method in brief: as §1

HCC-15 = tested on: HCC-15
Method in brief: as §1

RERF-LC-KJ = tested on: RERF-LC-KJ
Method in brief: as §1

NCI-H2342 = tested on: NCI-H2342
Method in brief: as §1

NCI-H647 = tested on: NCI-H647
Method in brief: as §1

SK-LU-1 = tested on: SK-LU-1
Method in brief: as §1

Which results are given for `CC1(C)CCC(c2ccc(Cl)cc2)=C(CN2CCN(c3ccc(C(=O)NS(=O)(=O)c4ccc(N[C@H](CCN5CCOCC5)CSc5ccccc5)c(S(=O)(=O)C(F)(F)F)c4)cc3)CC2)C1` [Navitoclax] + CC(=O)c1c(C)c2cnc(Nc3ccc(N4CCNCC4)cn3)nc2n(C2CCCC2)c1=O [Palbociclib] (partner 0.5 µM)?
relative viability (NCI-H2228; first compound 0.005 µM): 0.915; relative viability (NCI-H2228; first compound 0.01581 µM): 0.986; relative viability (NCI-H2228; first compound 0.1581 µM): 0.703; relative viability (NCI-H2228; first compound 0.5 µM): 0.687; relative viability (PC-3 [JPC-3]; first compound 0.005 µM): 0.576; relative viability (PC-3 [JPC-3]; first compound 0.01581 µM): 0.575; relative viability (PC-3 [JPC-3]; first compound 0.05 µM): 0.545; relative viability (PC-3 [JPC-3]; first compound 0.1581 µM): 0.531; relative viability (PC-3 [JPC-3]; first compound 0.5 µM): 0.506; relative viability (A-427; first compound 0.005 µM): 0.502; relative viability (A-427; first compound 0.01581 µM): 0.512; relative viability (A-427; first compound 0.05 µM): 0.516; relative viability (A-427; first compound 0.1581 µM): 0.514; relative viability (A-427; first compound 0.5 µM): 0.53; relative viability (LOU-NH91; first compound 0.005 µM): 0.53; relative viability (LOU-NH91; first compound 0.01581 µM): 0.523; relative viability (LOU-NH91; first compound 0.05 µM): 0.441; relative viability (LOU-NH91; first compound 0.1581 µM): 0.477; relative viability (LOU-NH91; first compound 0.5 µM): 0.409; relative viability (HOP-62; first compound 0.005 µM): 0.449; relative viability (HOP-62; first compound 0.01581 µM): 0.442; relative viability (HOP-62; first compound 0.05 µM): 0.429; relative viability (HOP-62; first compound 0.1581 µM): 0.391; relative viability (HOP-62; first compound 0.5 µM): 0.448; relative viability (NCI-H1734; first compound 0.005 µM): 0.339; relative viability (NCI-H1734; first compound 0.01581 µM): 0.374; relative viability (NCI-H1734; first compound 0.1581 µM): 0.296; relative viability (NCI-H1734; first compound 0.5 µM): 0.367; relative viability (SW 1573; first compound 0.005 µM): 0.417; relative viability (SW 1573; first compound 0.01581 µM): 0.41; relative viability (SW 1573; first compound 0.05 µM): 0.448; relative viability (SW 1573; first compound 0.1581 µM): 0.399; relative viability (SW 1573; first compound 0.5 µM): 0.38; relative viability (NCI-H1915; first compound 0.005 µM): 0.585; relative viability (NCI-H1915; first compound 0.01581 µM): 0.544; relative viability (NCI-H1915; first compound 0.05 µM): 0.499; relative viability (NCI-H1915; first compound 0.1581 µM): 0.507; relative viability (NCI-H1915; first compound 0.5 µM): 0.509; relative viability (NCI-H2347; first compound 0.005 µM): 0.468; relative viability (NCI-H2347; first compound 0.01581 µM): 0.48; relative viability (NCI-H2347; first compound 0.05 µM): 0.396; relative viability (NCI-H2347; first compound 0.1581 µM): 0.439; relative viability (NCI-H2347; first compound 0.5 µM): 0.377; relative viability (HCC-78; first compound 0.005 µM): 0.509; relative viability (HCC-78; first compound 0.01581 µM): 0.428; relative viability (HCC-78; first compound 0.05 µM): 0.441; relative viability (HCC-78; first compound 0.1581 µM): 0.448; relative viability (HCC-78; first compound 0.5 µM): 0.489; relative viability (NCI-H1755; first compound 0.005 µM): 0.433; relative viability (NCI-H1755; first compound 0.01581 µM): 0.482; relative viability (NCI-H1755; first compound 0.05 µM): 0.436; relative viability (NCI-H1755; first compound 0.1581 µM): 0.477; relative viability (NCI-H1755; first compound 0.5 µM): 0.488; relative viability (LC-2-ad; first compound 0.005 µM): 0.505; relative viability (LC-2-ad; first compound 0.01581 µM): 0.452; relative viability (LC-2-ad; first compound 0.05 µM): 0.456; relative viability (LC-2-ad; first compound 0.1581 µM): 0.413; relative viability (LC-2-ad; first compound 0.5 µM): 0.412; relative viability (NCI-H1792; first compound 0.005 µM): 0.651; relative viability (NCI-H1792; first compound 0.01581 µM): 0.661; relative viability (NCI-H1792; first compound 0.05 µM): 0.563; relative viability (NCI-H1792; first compound 0.1581 µM): 0.628; relative viability (NCI-H1792; first compound 0.5 µM): 0.647; relative viability (NCI-H1975; first compound 0.005 µM): 0.533; relative viability (NCI-H1975; first compound 0.01581 µM): 0.661; relative viability (NCI-H1975; first compound 0.05 µM): 0.437; relative viability (NCI-H1975; first compound 0.1581 µM): 0.532; relative viability (NCI-H1975; first compound 0.5 µM): 0.585; relative viability (LXF-289; first compound 0.005 µM): 0.589; relative viability (LXF-289; first compound 0.01581 µM): 0.658; relative viability (LXF-289; first compound 0.05 µM): 0.547; relative viability (LXF-289; first compound 0.1581 µM): 0.606; relative viability (LXF-289; first compound 0.5 µM): 0.627; relative viability (NCI-H2126; first compound 0.005 µM): 0.35; relative viability (NCI-H2126; first compound 0.01581 µM): 0.355; relative viability (NCI-H2126; first compound 0.05 µM): 0.342; relative viability (NCI-H2126; first compound 0.1581 µM): 0.303; relative viability (NCI-H2126; first compound 0.5 µM): 0.366; relative viability (NCI-H358; first compound 0.005 µM): 0.128; relative viability (NCI-H358; first compound 0.01581 µM): 0.147; relative viability (NCI-H358; first compound 0.05 µM): 0.142; relative viability (NCI-H358; first compound 0.1581 µM): 0.121; relative viability (NCI-H358; first compound 0.5 µM): 0.134; relative viability (NCI-H460; first compound 0.005 µM): 0.167; relative viability (NCI-H460; first compound 0.01581 µM): 0.159; relative viability (NCI-H460; first compound 0.05 µM): 0.0945; relative viability (NCI-H460; first compound 0.1581 µM): 0.217; relative viability (NCI-H460; first compound 0.5 µM): 0.13; relative viability (HCC-15; first compound 0.005 µM): 0.738; relative viability (HCC-15; first compound 0.01581 µM): 0.77; relative viability (HCC-15; first compound 0.05 µM): 0.655; relative viability (HCC-15; first compound 0.1581 µM): 0.773; relative viability (HCC-15; first compound 0.5 µM): 0.687; relative viability (RERF-LC-KJ; first compound 0.005 µM): 1.06; relative viability (RERF-LC-KJ; first compound 0.01581 µM): 1.01; relative viability (RERF-LC-KJ; first compound 0.05 µM): 1.14; relative viability (RERF-LC-KJ; first compound 0.1581 µM): 1.07; relative viability (RERF-LC-KJ; first compound 0.5 µM): 1.01; relative viability (NCI-H2342; first compound 0.005 µM): 0.611; relative viability (NCI-H2342; first compound 0.01581 µM): 0.531; relative viability (NCI-H2342; first compound 0.05 µM): 0.541; relative viability (NCI-H2342; first compound 0.1581 µM): 0.477; relative viability (NCI-H2342; first compound 0.5 µM): 0.629; relative viability (NCI-H647; first compound 0.005 µM): 0.336; relative viability (NCI-H647; first compound 0.01581 µM): 0.359; relative viability (NCI-H647; first compound 0.05 µM): 0.24; relative viability (NCI-H647; first compound 0.1581 µM): 0.414; relative viability (NCI-H647; first compound 0.5 µM): 0.344; relative viability (SK-LU-1; first compound 0.005 µM): 0.396; relative viability (SK-LU-1; first compound 0.01581 µM): 0.508; relative viability (SK-LU-1; first compound 0.05 µM): 0.337; relative viability (SK-LU-1; first compound 0.1581 µM): 0.384; relative viability (SK-LU-1; first compound 0.5 µM): 0.414
